In assay [1] the target is T1, trypsin (Bos taurus, UniProt P00760).
T1 construct: Active trypsin is produced only after trypsinogen reaches the small intestine through the common bile duct and is cleaved by enterokinase; purchased Sigma, St. Louis; host or cells: bovine pancreas
T1 sequence (P00760 24-246): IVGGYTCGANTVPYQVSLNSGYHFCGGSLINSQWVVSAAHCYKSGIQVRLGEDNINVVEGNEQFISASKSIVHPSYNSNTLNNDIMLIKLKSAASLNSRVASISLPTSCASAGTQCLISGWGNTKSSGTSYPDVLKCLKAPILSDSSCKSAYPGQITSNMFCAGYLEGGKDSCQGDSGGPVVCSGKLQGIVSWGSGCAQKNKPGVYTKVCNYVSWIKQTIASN
The assay is described as follows: Steady-state kinetics of trypsin digestion of EGFP-based trypsin sensors and BAPNA (absorbance at 490 nm, Michaelis-Menten fit). It is filed as biochemical, bovine. As to conditions: Table 2; 10 mM Tris, 20 mM CaCl2, pH 7.4.
Description: Initial rates of trypsin digestion reaction for EGFP-T/C1 with various concentrations were measured using a time-course model to monitor the change of absorbance at 490 nm for 10 min on a UV-1700 spectrometer (Shimadzu, Japan), where the initial rate was equivalent to the resulting slope of absorbance increase.
In order to investigate the kinetic change and to determine the steady-state kinetic parameters kcat, Km, and kcat/Km for hydrolysis of EGFP-based trypsin sensors upon the action of trypsin, initial rates were measured at various EGFP-based trypsin sensor concentrations. The change of absorbance was monitored at 490 nm for 10 min using UV-1700 spectrometer (Shimadzu, Japan) in time-course model and the slope of absorbance increase was determined as the initial rate data. The data were fitted to the Michaelis-Menten equation by nonlinear regression using KaleidaGraph 3.5 software (Synergy software) to obtain the Michaelis constants (Km), turnover numbers (kcat) and specificity constants (kcat/Km).
In order to examine buffer pH effect on trypsin cleavage, kinetic parameters of our designed trypsin sensors were evaluated during trypsin digestion in PIPES buffer (20 mM PIPES, 20 mM CaCl2, pH 6.7) and Tris buffer (10 mM Tris, 20 mM CaCl2, pH 7.4 and pH 8.0), respectively. […]

Assay [2] deals with T1, trypsin. The experiment in a line: Inhibition by leupeptin of trypsin digestion of EGFP-T/C1. The class given is biochemical, bovine. The method, then:
In order to examine inhibition effect of leupeptin (Sigma, St. Louis), a trypsin inhibitor, leupeptin at various concentrations (0, 12.5, 25, 50 and 100 nM) was mixed with EGFP-T/C1 and subsequently digested by trypsin at a final concentration of 0.005 μM. The kinetic studies of EGFP-T/C1 with various concentrations were performed at each inhibitor concentration level and the absorbance change at 490 nm was mintored using a time course model. The double reciprocal of initial rates and trypsin sensor concentrations was performed to obtain the plot for confirming inhibition type and calculation of Ki value.
In order to ensure that our developed sensor is able to directly monitor the catalytic step of the enzymatic reaction, we then examined the inhibition effect of leupeptin on trypsin during the digestion of EGFP-T/C1 with various leupeptin concentrations. The rate of the signal change due to cleavage decreases with increasing leupeptin concentrations (FIG. 6A).

In assay [3] the test system is caspase-3 activation in Hela cells. The assay is described as follows: Fluorescence imaging of Hela cells transfected with caspase-3 sensor, STS induction. The class given is cell-based, human. The method, then: (§1) Hela cells were grown on glass coverslips (0.5-1.0×10^6 cells/dish) in 35 mm culture dishes in Dulbecco's Modified Eagles Medium (DMEM) (Sigma Chemical Co., St. Louis, Mo.) with 44 mM NaHCO3, pH 7.2, and supplemented with 10% (v/v) fetal calf serum (FCS), 100 U/ml penicillin and 0.1 mg/ml streptomycin (Pen/Strep) at 37° C. with 5% CO2 in a humidified incubation chamber. After the cells were seeded and grown overnight, the EGFP-based caspase-3 sensor plasmid was transfected into Hela cells with lipofectamine-2000 (Invitrogen Life Technologies) and serum-free Opti-MEM (Gibco Invitrogen Corporation) according to the manufacturer's instructions. […] The cells were then grown 24 to 48 hours in a humidified chamber with 5% CO2 at 30° C. before fluorescence microscope imaging. […]
Hela cells with transfected EGFP-based caspase-3 sensor were imaged following its expression for 24 or 48 hours. […] Fluorescence imaging of Hela cells with EGFP-wt transfection was used as the control.
The ratiometric change between fluorescence emission for excitation at 398 nm and 488 nm was used to detect caspase-3 activation and inhibition at different time intervals in living cells. Fluorescence for both excitation wavelengths is expected to decrease at 398 nm and produce a corresponding increase at 488 nm during the course of the reaction. The fluorescence intensity of the cells was normalized with equation 2: […]

Assay [4] addresses T1, trypsin. The experiment in a line: Cleavage status after trypsin digestion (SDS-PAGE, MALDI-MS). The class given is biochemical, bovine. As to conditions: up to 40 hours. The method, then: To examine the cleavage status of the protease sensors (EGFP-T/C1, and EGFP-wt) at different time points, 20 μl of reaction mixtures of 15 μM EGFP variants during trypsin digestion were removed and immediately added SDS sample buffer and boiled to stop the reaction for monitoring by SDS-PAGE at different digestion time intervals (0 min, 5 min, 10 min, 30 min, 60 min, 2 h, 6 h, and 24 h). The samples were loaded on 15% SDS-PAGE to examine the cleavage status of three EGFP variants.
Similarly, after digestion with trypsin, the cleavage status was confirmed using matrix assisted laser desorption/ionization-mass spectrometry (MALDI-MS).
In order to verify the cleavage status of EGFP-based trypsin sensors, the samples during trypsin digestion at various digestion time intervals were examined with 15% SDS-PAGE and MALDI mass spectrometry.

The subject of assay [5] is trypsin activation in MIA PaCa-2 cells. The assay is described as follows: Fluorescence imaging of MIA PaCa-2 cells transfected with trypsin sensor, caerulein activation. The class given is cell-based. As to conditions: zymogen activation by 10 nM caerulein. The method, then: as §1, with “MIA PaCa-2” for “Hela”, “bovine” for “calf”, “(FBS),” for “(FCS),”, “EGFP-T/C1” for “the EGFP-based caspase-3 sensor plasmid”
MIA PaCa-2 cells with transfected EGFP-T/C1 were imaged following trypsin sensor expression for 24 or 48 hours. […] The ratiometric change between fluorescence emission for excitation at 398 nm and 488 nm was used to detect trypsin activity at different time intervals in the living cells. Fluorescence for both excitation wavelengths is expected to decrease at 398 nm and produce a corresponding increase at 488 nm during the course of reaction. The fluorescence intensity of the cells was normalized with equation 2: […]
The fluorescence ratiometric change (R) is expressed by equation 3: […]

Assay [6] relates to caspase-3 activation in MIA PaCa-2 cells. The assay is described as follows: Fluorescence imaging of MIA PaCa-2 cells transfected with caspase-3 sensor, STS induction. The class given is cell-based. The source says: After induction, there was obvious increase in fluorescence of EGFP-EF172cas2 at 398 nm excitation and significant decrease in fluorescence at 488 nm excitation in real time, which results in an increased fluorescence ratio change between 398 and 488 nm, and a corresponding increase in sensitivity for determining the caspase-3 activity in living cells, and an increase in the dynamic range up to 4 for the caspase-3 activity determination. Although there was a slight increase and then decrease in fluorescence of EGFP-wt at both wavelengths after STS induction, the relative fluorescence ratio change was negligible. A possible reason for this would be a change in the cell shape to which increases the fluorescence slightly during the apoptosis. […] Apoptosis is observed in MIA PaCa-2 is a little earlier and stronger than in HeLa cells. There is a huge fluorescence change with excitation at 398 nm in MIA PaCa-2 cells transfected with EGFP-EF172cas2. The cause of this is reasoned to be due to intrinsic high-level caspase-3 activity in MIA PaCa-2 cells and its activity is enhanced by STS induction.

Entries after “also recorded” stand apart in the source; their conditions may differ.

In the case of `Cl.N=C(N)NCCCC(NC(=O)c1ccccc1)C(=O)Nc1ccc([N+](=O)[O-])cc1` (racemic) [BAPNA, benzoyl-DL-arginine-4-nitroanilide hydrochloride], at trypsin [1], the kcat was 1.33 ± 0.17 s⁻¹.

`CC(=O)N[C@@H](CC(C)C)C(=O)N[C@@H](CC(C)C)C(=O)N[C@H](C=O)CCCNC(=N)N` [leupeptin]: at trypsin [2] (double reciprocal plot, Enzfitter fit), the inhibition type entry is reported as “competitive inhibition”. On trypsin [2] (substrate EGFP-T/C1, 0.005 μM trypsin, 10 mM Tris, 20 mM CaCl2, pH 7.4), this molecule registered a Ki of 31.1 ± 2.3 nM.

For the molecule DEVD-CHO, the “ratio (R398/488) of fluorescence of caspase-3 sensor cells incubated with caspase-3 inhibitor” value in assay [3] (Hela cells transfected with EGFP-cas3-1e, inhibitor overnight, then 1 μM STS) is on record as “no change”.

As to “EGFP-wt: enhanced green fluorescent protein, Sequence ID. No. 119; used as the control”, the “cleavage status upon incubation with trypsin” value in the assay with trypsin [4] is reported as “remains intact”. In addition, in assay [3] (Hela cells, 1 μM STS induction, emission 510 nm), the “ratio (R398/488) of fluorescence signal change” value was “no apparent ratiometric change; also recorded: negligible”. In assay [5], the “ratiometric emission change (510 nm emission, excitation 488/398 nm)” value is recorded as “remained unchanged”. Moreover, in assay [6], the fluorescence ratio change result is reported as “maintains a gradient increase”.

Source of the values: patent US9103830B2, “Enzyme sensors, methods for preparing and using such sensors, and methods of detecting protease activity” (Georgia State University Research Foundation, Inc., priority 2006, dated 2015).
